Test results as given in patent US8916702B2 (priority 2012, dated 2014).

system: HCV pseudoparticles (genotype 1a HCV E1 and E2 envelope, H77C isolate); test: microbe, parasite or virus in culture; assay type: cell-based; conditions: Hepatitis C virus, Huh-7, 48 h, HCV pseudoparticle infection of Huh7 cells, luciferase 2 days after infection; average of duplicates

COC(=O)[C@H](CNC(=O)C(=O)NCc1ccc(F)cc1)NC(=O)c1ccc(Nc2nc(NC3(c4ccc(Cl)cc4)CC3)nc(OCC(F)(F)F)n2)cc1 [Compound 1133] was tested, and the EC50 was 1.4 nM.

same assay, conditions: Hepatitis C virus, Huh-7, 48 h, HCV pseudoparticles (genotype 1a, H77C) in Huh7 cells; average of duplicate; luciferase 2 days after infection

Going from COC(=O)[C@@H](CCNC(=O)C(=O)Nc1ccc(Oc2cccnc2)nc1)NC(=O)c1ccc(Nc2nc(NC3(c4ccc(Cl)cc4)CC3)nc(OCC(F)(F)F)n2)cc1 [Compound 3582] to CC(C)(CNC(=O)C(=O)NS(=O)(=O)c1ccccc1)CNC(=O)c1ccc(Nc2nc(NC3(c4ccc(Cl)cc4)CC3)nc(OCC(F)(F)F)n2)cc1 [Compound 3021], the EC50 falls from 8.95 nM to 0.73 nM (12-fold). The second is the more potent here.

Work on O=C(NCCCCNC(=O)c1ccc(Nc2nc(NC3(c4ccc(Cl)cc4)CC3)nc(OCC(F)(F)F)n2)cc1)C(=O)N1CCc2ccccc2C1 [Compound 3402] yielded an EC50 of 0.2 nM.

same assay, conditions: Hepatitis C virus, Huh-7, 48 h, HCV pseudoparticles, Huh7 cells, luciferase 2 days after infection; average of duplicates

For CCc1cccc(NC(=O)C(=O)NC[C@H](NC(=O)c2ccc(Nc3nc(NC4(c5ccc(Cl)cc5)CC4)nc(OCC(F)(F)F)n3)cc2)C(=O)Cl)c1 [Compound 3744], the EC50 was 1.18 nM.

same assay, conditions: Hepatitis C virus, Huh-7, 48 h, read-out: Activity (EC50 class), HCV pseudoparticle infection of Huh7 cells, luciferase 2 days after infection; EC50 expressed as class A/B

COC1CCCCC1CNC(=O)C(=O)NCC[C@H](NC(=O)c1ccc(Nc2nc(NC3(c4ccc(Cl)cc4)CC3)nc(OCC(F)(F)F)n2)cc1)C(=O)O (some centres unmarked) [Compound 1182] and C[C@@H](NC(=O)C(=O)NCC[C@H](NC(=O)c1ccc(Nc2nc(NC3(c4ccc(Cl)cc4)CC3)nc(OCC(F)(F)F)n2)cc1)C(=O)O)C1CC1 [Compound 1420] fall in the same range of EC50: 0.01 to 10 nM for the first, 0.01 to 10 nM for the second.

CCC1CCC(NC(=O)C(=O)NCC[C@H](NC(=O)c2ccc(Nc3nc(NC4(c5ccc(Cl)cc5)CC4)nc(OCC(F)(F)F)n3)cc2)C(=O)OC)CC1 (some centres unmarked) [Compound 1103] and COC(=O)[C@@H](CCNC(=O)C(=O)NC(CCO)C1CC1)NC(=O)c1ccc(Nc2nc(NC3(c4ccc(Cl)cc4)CC3)nc(OCC(F)(F)F)n2)cc1 (some centres unmarked) [Compound 1390] fall in the same range of EC50: 0.01 to 10 nM for the first, 0.01 to 10 nM for the second.

COC(=O)[C@H](CCNC(=O)C(=O)Nc1cccc(F)c1)NC(=O)c1ccc(Nc2nc(NC3(c4ccc(Cl)cc4)CC3)nc(OCC(F)(F)F)n2)cc1 [Compound 1227] and COC(=O)[C@H](CCNC(=O)C(=O)NCc1ccc(F)cc1)NC(=O)c1ccc(Nc2nc(NC3(c4ccc(Cl)cc4)CC3)nc(OCC(F)(F)F)n2)cc1 [Compound 1145] fall in the same range of EC50: 0.01 to 10 nM for the first, 0.01 to 10 nM for the second.

CC(C)(C)OC(=O)N1CCCC(CNC(=O)C(=O)NC[C@H](NC(=O)c2ccc(Nc3nc(NC4(c5ccc(Cl)cc5)CC4)nc(OCC(F)(F)F)n3)cc2)C(=O)O)C1 (some centres unmarked) [Compound 1468] and COC(=O)[C@H](CNC(=O)C(=O)NCC1CC1)NC(=O)c1ccc(Nc2nc(NC3(c4ccc(Cl)cc4)CC3)nc(OCC(F)(F)F)n2)cc1 [Compound 1461] fall in the same range of EC50: 0.01 to 10 nM for the first, 0.01 to 10 nM for the second.

COC(=O)[C@H](CCNC(=O)C(=O)NC[C@H]1C[C@H]1c1ccc(C)cc1)NC(=O)c1ccc(Nc2nc(NC3(c4ccc(Cl)cc4)CC3)nc(OCC(F)(F)F)n2)cc1 [Compound 1393] and COC(=O)[C@H](CCNC(=O)C(=O)NCc1c(F)cccc1F)NC(=O)c1ccc(Nc2nc(NC3(c4ccc(Cl)cc4)CC3)nc(OCC(F)(F)F)n2)cc1 [Compound 1158] fall in the same range of EC50: 0.01 to 10 nM for the first, 0.01 to 10 nM for the second.

First: NC(=O)C(=O)N1CCCC(C(NC(=O)c2ccc(Nc3nc(NC4(c5ccc(Cl)cc5)CC4)nc(OCC(F)(F)F)n3)cc2)C(=O)O)C1 (centres unmarked) [Compound 1018, 2-(1-(2-amino-2-oxoacetyl)piperidin-3-yl)-2-(4-(4-(1-(4-chlorophenyl)cyclopropylamino)-6-(2,2,2-trifluoroethoxy)-1,3,5-triazin-2-ylamino)benzamido)acetic acid]
Second: Cn1ccnc1NC(=O)C(=O)NCC[C@H](NC(=O)c1ccc(Nc2nc(NC3(c4ccc(Cl)cc4)CC3)nc(OCC(F)(F)F)n2)cc1)C(=O)O [Compound 1264]
The EC50 of the first is lower: 0.01 to 10 nM for the first, 10 to 1000 nM for the second.

COC(=O)[C@H](CCNC(=O)C(=O)NCCc1ccccc1)NC(=O)c1ccc(Nc2nc(NC3(c4ccc(Cl)cc4)CC3)nc(OCC(F)(F)F)n2)cc1 [Compound 1308] and COC(=O)[C@H](CNC(=O)C(=O)NCCc1ccccn1)NC(=O)c1ccc(Nc2nc(NC3(c4ccc(Cl)cc4)CC3)nc(OCC(F)(F)F)n2)cc1 [Compound 1282] fall in the same range of EC50: 0.01 to 10 nM for the first, 0.01 to 10 nM for the second.

COC(=O)[C@H](CCNC(=O)C(=O)N[C@H]1C[C@@H]2C[C@@H]([C@@H]1C)C2(C)C)NC(=O)c1ccc(Nc2nc(NC3(c4ccc(Cl)cc4)CC3)nc(OCC(F)(F)F)n2)cc1 [Compound 1110] and COCC1(CNC(=O)C(=O)NCC[C@H](NC(=O)c2ccc(Nc3nc(NC4(c5ccc(Cl)cc5)CC4)nc(OCC(F)(F)F)n3)cc2)C(=O)OC)CC1 [Compound 1374] fall in the same range of EC50: 0.01 to 10 nM for the first, 0.01 to 10 nM for the second.

CCc1cccc(NC(=O)C(=O)NCC(C)(C)CNC(=O)c2ccc(Nc3nc(NC4(c5ccc(Cl)cc5)CC4)nc(OCC(F)(F)F)n3)cc2)c1 [Compound 1591] and COC(=O)[C@H](CNC(=O)C(=O)NCc1ccc(F)cc1)NC(=O)c1ccc(Nc2nc(NC3(c4ccc(Cl)cc4)CC3)nc(OCC(F)(F)F)n2)cc1 [Compound 1133] fall in the same range of EC50: 0.01 to 10 nM for the first, 0.01 to 10 nM for the second.

With CCc1ccnn1CC1(CNC(=O)C(=O)NCC[C@H](NC(=O)c2ccc(Nc3nc(NC4(c5ccc(Cl)cc5)CC4)nc(OCC(F)(F)F)n3)cc2)C(=O)O)CC1 [Compound 1430] the EC50 was 0.01 to 10 nM.

same assay, conditions: Hepatitis C virus, Huh-7, 48 h, read-out: Activity (EC50 class), HCV pseudoparticles, Huh7 cells, luciferase 2 days after infection; average of duplicates

COc1cc2nc(NC(=O)C(=O)NCC(C)(C)CNC(=O)c3ccc(Nc4nc(NC5(c6ccc(Cl)cc6)CC5)nc(OCC(F)(F)F)n4)cc3F)sc2cc1OC [Compound 3677] and Cc1ccc2nc(NC(=O)C(=O)NCC(C)(C)CNC(=O)c3ccc(Nc4nc(NC5(c6ccc(Cl)cc6)CC5)nc(OCC(F)(F)F)n4)cc3)sc2c1 [Compound 3826] fall in the same range of EC50: 0.01 to 10 nM for the first, 0.01 to 10 nM for the second.

COC(=O)[C@H](CCNC(=O)C(=O)Nc1cccc(OCc2ccccc2)c1)NC(=O)c1ccc(Nc2nc(NC3(c4ccc(Cl)cc4)CC3)nc(OCC(F)(F)F)n2)cc1 [Compound 3612] and COC(=O)[C@H](CNC(=O)C(=O)Nc1cccc(C(C)C)c1)NC(=O)c1ccc(Nc2nc(NC3(c4ccc(Cl)cc4)CC3)nc(OCC(F)(F)F)n2)cc1 [Compound 3702] fall in the same range of EC50: 0.01 to 10 nM for the first, 0.01 to 10 nM for the second.

Cc1cccc(NC(=O)C(=O)NC[C@H](NC(=O)c2ccc(Nc3nc(NC4(c5ccc(Cl)cc5)CC4)nc(OCC(F)(F)F)n3)cc2)C(=O)Cl)c1 [Compound 3743] and CCc1cccc(NC(=O)C(=O)NC[C@H](NC(=O)c2ccc(Nc3nc(NC4(c5ccc(Cl)cc5)CC4)nc(OCC(F)(F)F)n3)cc2)C(=O)Cl)c1 [Compound 3744] fall in the same range of EC50: 0.01 to 10 nM for the first, 0.01 to 10 nM for the second.

CC(C)(CNC(=O)C(=O)Nc1nc2c(Cl)c(Cl)ccc2s1)CNC(=O)c1ccc(Nc2nc(NC3(c4ccc(Cl)cc4)CC3)nc(OCC(F)(F)F)n2)cc1 [Compound 3821] and CC(C)(CNC(=O)C(=O)Nc1ccc2sccc2c1)CNC(=O)c1ccc(Nc2nc(NC3(c4ccc(Cl)cc4)CC3)nc(OCC(F)(F)F)n2)cc1 [Compound 3666] fall in the same range of EC50: 0.01 to 10 nM for the first, 0.01 to 10 nM for the second.

O=C(NC[C@H](NC(=O)c1ccc(Nc2nc(NC3(c4ccc(Cl)cc4)CC3)nc(OCC(F)(F)F)n2)cc1)C(=O)O)C(=O)Nc1cccc(CN2CCCC2)c1 [Compound 3778] gave an EC50 of 0.01 to 10 nM.

same assay, conditions: Hepatitis C virus, Huh-7, read-out: Activity (EC50 class), HCV pseudoparticles (genotype 1a, H77C) in Huh7 cells; EC50 expressed as class A/B

O=C(NC/C(=N/C(=O)c1ccc(Nc2nc(NC3(c4ccc(Cl)cc4)CC3)nc(OCC(F)(F)F)n2)cc1)C(=O)O)C(=O)Nc1ccc(N2CCN(Cc3ccccc3)CC2)cc1 [Compound 3169] and O=C(NC/C(=N/C(=O)c1ccc(Nc2nc(NC3(c4ccc(Cl)cc4)CC3)nc(OCC(F)(F)F)n2)cc1)C(=O)O)C(=O)Nc1ccc(-c2ccccc2)cc1 [Compound 3151] fall in the same range of EC50: 0.01 to 10 nM for the first, 0.01 to 10 nM for the second.

CCOc1ccc(NC(=O)C(=O)NC[C@H](NC(=O)c2ccc(Nc3nc(NC4(c5ccc(Cl)cc5)CC4)nc(OCC(F)(F)F)n3)cc2)C(=O)O)cc1 [Compound 3293] and CC(CNC(=O)C(=O)Nc1ccc(F)cc1)CNC(=O)c1ccc(Nc2nc(NC3(c4ccc(Cl)cc4)CC3)nc(OCC(F)(F)F)n2)cc1 (centres unmarked) [Compound 3335] fall in the same range of EC50: 0.01 to 10 nM for the first, 0.01 to 10 nM for the second.

Compared with COC(=O)[C@@H](CCNC(=O)C(=O)Nc1ccc(Oc2cccnc2)nc1)NC(=O)c1ccc(Nc2nc(NC3(c4ccc(Cl)cc4)CC3)nc(OCC(F)(F)F)n2)cc1 [Compound 3582], COC(=O)[C@@H](CCNC(=O)C(=O)Nc1ccc(Oc2ccc(Cl)cc2Cl)nc1)NC(=O)c1ccc(Nc2nc(NC3(c4ccc(Cl)cc4)CC3)nc(OCC(F)(F)F)n2)cc1 [Compound 3580] is higher in EC50: 0.01 to 10 nM for the first, 10 to 1000 nM for the second.

Cc1cccc(CNC(=O)C(=O)NCC(C)(C)CNC(=O)c2ccc(Nc3nc(NC4(c5ccc(Cl)cc5)CC4)nc(OCC(F)(F)F)n3)cc2)c1 [Compound 3042] and CC(C)(CNC(=O)C(=O)NS(=O)(=O)c1ccccc1)CNC(=O)c1ccc(Nc2nc(NC3(c4ccc(Cl)cc4)CC3)nc(OCC(F)(F)F)n2)cc1 [Compound 3021] fall in the same range of EC50: 0.01 to 10 nM for the first, 0.01 to 10 nM for the second.

COC(=O)[C@H](CNC(=O)C(=O)Nc1ccc(-c2ccncc2)cc1)NC(=O)c1ccc(Nc2nc(NC3(c4ccc(Cl)cc4)CC3)nc(OCC(F)(F)F)n2)cc1 [Compound 3181] and COC(=O)[C@H](CNC(=O)C(=O)Nc1ccc(-c2ccccc2)cc1)NC(=O)c1ccc(Nc2nc(NC3(c4ccc(Cl)cc4)CC3)nc(OCC(F)(F)F)n2)cc1 [Compound 3083] fall in the same range of EC50: 0.01 to 10 nM for the first, 0.01 to 10 nM for the second.

COC(=O)[C@H](CCNC(=O)C(=O)Nc1ccc(Oc2ccc(F)cc2)cc1)NC(=O)c1ccc(Nc2nc(NC3(c4ccc(Cl)cc4)CC3)nc(OCC(F)(F)F)n2)cc1 [Compound 3301] and COC(=O)[C@H](CNC(=O)C(=O)Nc1ccc(Oc2ccc(F)cc2)cc1)NC(=O)c1ccc(Nc2nc(NC3(c4ccc(Cl)cc4)CC3)nc(OCC(F)(F)F)n2)cc1 [Compound 3184] fall in the same range of EC50: 0.01 to 10 nM for the first, 0.01 to 10 nM for the second.

Cn1ccc(NC(=O)C(=O)NCC(C)(C)CNC(=O)c2ccc(Nc3nc(NC4(c5ccc(Cl)cc5)CC4)nc(OCC(F)(F)F)n3)cc2)n1 [Compound 3023] and Cn1cnc(NC(=O)C(=O)NCC(C)(C)CNC(=O)c2ccc(Nc3nc(NC4(c5ccc(Cl)cc5)CC4)nc(OCC(F)(F)F)n3)cc2)c1 [Compound 3178] fall in the same range of EC50: 0.01 to 10 nM for the first, 0.01 to 10 nM for the second.

Cn1cnc2ccc(NC(=O)C(=O)NCC(C)(C)CNC(=O)c3ccc(Nc4nc(NC5(c6ccc(Cl)cc6)CC5)nc(OCC(F)(F)F)n4)cc3)cc21 [Compound 3341] and Cc1cc(NC(=O)C(=O)NCCCNC(=O)c2ccc(Nc3nc(NC4(c5ccc(Cl)cc5)CC4)nc(OCC(F)(F)F)n3)cc2)no1 [Compound 3343] fall in the same range of EC50: 0.01 to 10 nM for the first, 0.01 to 10 nM for the second.

Compound O=C(NCCCCNC(=O)c1ccc(Nc2nc(NC3(c4ccc(Cl)cc4)CC3)nc(OCC(F)(F)F)n2)cc1)C(=O)N1CCc2ccccc2C1 [Compound 3402] has an EC50 of 0.01 to 10 nM.
